Experimental data taken from patent publication US6191126A, “Topical use of κ opioid agonists to treat ocular pain” (Alcon Laboratories, Inc., priority 1999, dated 2001).

Experiments:
[1] = tested on: formalin-induced ocular pain (blinking); assay: formalin-induced model of ocular pain in the rat (inhibition of blinking after topical ocular dosing); conditions: in vivo
[2] = tested on: mu opioid receptor (vs delta and kappa receptors); conditions: Goodman and Gilman, 8th Edition; cited from earlier work

SMILES: COC(=O)N1CCN(C(=O)Cc2ccc(Cl)c(Cl)c2)C(CN2CCCC2)C1 (racemic) [GR 89696]
- % Inhibition (of blink count in first minute vs vehicle) [1]: 98

SMILES: CN1CC[C@]23c4c5ccc(O)c4O[C@H]2[C@@H](O)C=C[C@H]3[C@H]1C5 [Morphine]
- % Inhibition (of blink count in first minute vs vehicle) [1]: 8
- times greater affinity for the mu receptor than for the delta and kappa receptors [2]: ten
